# Data published in patent publication US11787780B2 (CORCEPT THERAPEUTICS INCORPORATED, priority 2020, dated 2023).
# Tested on: induction of TAT by dexamethasone in HepG2 cells
# Test: Hep G2 TAT assay (inhibition of dexamethasone-induced TAT)
# Type: cell-based, human
# Conditions: challenge of 100 nM dexamethasone, IC50 converted to Ki by Cheng and Prusoff equation
# Procedure: Glucocorticoid mediated activation of TAT occurs by transactivation of glucocorticoid response elements in the TAT promoter by glucocorticoid receptor-agonist complex. The following protocol describes an assay for measuring induction of TAT by dexamethasone in HepG2 cells (a human liver hepatocellular carcinoma cell line; ECACC, UK).
# TAT activity was measured as outlined in the literature by A. Ah et al., J. Med. Chem., 2004, 47, 2441-2452.
# HepG2 cells were cultured using MEME media supplemented with 10% (v/v) foetal bovine serum; 2 mM L-glutamine and 1% (v/v) NEAA at 37° C., 5%/95% (v/v) CO2/air. The HepG2 cells were counted and adjusted to yield a density of 0.125×10^6 cells/ml in RPMI 1640 without phenol red, 10% (v/v) charcoal stripped FBS, 2 mM L-glutamine and seeded at 25,000 cells/well in 200 μl into 96 well, sterile, tissue culture micro titre plates, and incubated at 37° C., 5% CO2 for 24 hours
# Growth media was removed and replaced with assay media {RPMI 1640 without phenol red, 2 mM L-glutamine+10 μM forskolin}. Test compounds were screened against a challenge of 100 nM dexamethasone. Compounds were serially half log diluted in 100% (v/v) dimethylsulphoxide from a 10 mM stock.
# Test compounds were pre-incubated with cells in micro-titre plates for 30 minutes at 37° C., 5/95 (v/v) CO2/air, before the addition of 100 nM dexamethasone and then subsequently for 20 hours to allow optimal TAT induction.
# HepG2 cells were then lysed with 30 μl of cell lysis buffer containing a protease inhibitor cocktail for 15 minutes at 4° C. […] After 2 hours incubation at 37° C. the reaction was terminated by the addition of 15 μl of 10M aqueous potassium hydroxide solution, and the plates incubated for a further 30 minutes at 37° C. The TAT activity product was measured by absorbance at λ 340 nm.
# [compound] and fitting the data to a 4 parameter logistic equation. IC50 values were converted to Ki (equilibrium dissociation constant) using the Cheng and Prusoff equation, assuming the antagonists were competitive inhibitors with respect to dexamethasone.
row,SMILES,Ki
1,COCCn1cc(S(=O)(=O)N2CCN(c3cc4cnn(-c5ccc(F)cc5)c4cc3C)CC23CC3)cn1 [Example 78],70 nM
2,C#CCC1(c2cc3cnn(-c4ccc(F)cc4)c3cc2C)CCN(S(C)(=O)=O)C1 (stereo not drawn) [Example 184],252 nM
3,"Cc1cc2c(cnn2-c2ccc(F)cc2)cc1C1(Cc2ccccc2)CCN(S(=O)(=O)c2cn(C)cn2)C1 (stereo not drawn) [Example 210, 5-(3-benzyl-1-((1-methyl-1H-imidazol-4-yl)sulfonyl)pyrrolidin-3-yl)-1-(4-fluorophenyl)-6-methyl-1H-indazole]",41 nM
4,"COc1ccc(-n2ncc3cc(C4(Cc5ccccc5)CCN(S(=O)(=O)c5cnn(C)n5)C4)c(C)cc32)cn1 (stereo not drawn) [Example 236, 5-(3-benzyl-1-((2-methyl-2H-1,2,3-triazol-4-yl)sulfonyl)pyrrolidin-3-yl)-1-(6-methoxypyridin-3-yl)-6-methyl-1H-indazole]",81 nM
5,"Cc1cc2c(cnn2-c2ccc(F)cc2)cc1C1(Cc2ccccc2)CCN(C(=O)Cc2csc3ccccc23)C1 (stereo not drawn) [Example 202, 2-(benzo[b]thiophen-3-yl)-1-(3-benzyl-3-(1-(4-fluorophenyl)-6-methyl-1H-indazol-5-yl)pyrrolidin-1-yl)ethan-1-one]",67 nM
6,"Cc1cc2c(cnn2-c2ccc(=O)n(C3CC3)c2)cc1C1(Cc2ccccc2)CCN(S(=O)(=O)c2cnn(C)n2)C1 (stereo not drawn) [Example 270, 5-(5-(3-benzyl-1-((2-methyl-2H-1,2,3-triazol-4-yl)sulfonyl)pyrrolidin-3-yl)-6-methyl-1H-indazol-1-yl)-1-cyclopropylpyridin-2(1H)-one]",600 nM
7,"COc1cc2c(cnn2-c2ccc(F)cc2)cc1C1(Cc2ccccc2)CCN(C(=O)c2cscn2)C1 (stereo not drawn) [Example 230, (3-benzyl-3-(1-(4-fluorophenyl)-6-methoxy-1H-indazol-5-yl)pyrrolidin-1-yl)(thiazol-4-yl)methanone]",74 nM
8,"CCCn1cc(S(=O)(=O)N2CCC(Cc3ccccc3)(c3cc4cnn(C5CCC(=O)N(C)C5)c4cc3C)C2)cn1 (stereo not drawn) [Example 273, 5-(5-(3-benzyl-1-((1-propyl-1H-pyrazol-4-yl)sulfonyl)pyrrolidin-3-yl)-6-methyl-1H-indazol-1-yl)-1-methylpiperidin-2-one]",280 nM
9,"Cc1cc(-n2ncc3cc(C4(Cc5ccccc5)CCN(S(=O)(=O)c5cnn(C)n5)C4)c(C)cc32)ccn1 (stereo not drawn) [Example 240, 5-(3-benzyl-1-((2-methyl-2H-1,2,3-triazol-4-yl)sulfonyl)pyrrolidin-3-yl)-6-methyl-1-(2-methylpyridin-4-yl)-1H-indazole]",73 nM
10,"Cc1ncc(CC2(c3cc4cnn(-c5ccc(F)cc5)c4cc3C)CCN(S(=O)(=O)c3cnn(C)c3)C2)s1 (stereo not drawn) [Example 227, 5-((3-(1-(4-fluorophenyl)-6-methyl-1H-indazol-5-yl)-1-((1-methyl-1H-pyrazol-4-yl)sulfonyl)pyrrolidin-3-yl)methyl)-2-methylthiazole]",350 nM
11,C#CCC1(c2cc3cnn(-c4ccc(F)cc4)c3cc2C)CCN(S(=O)(=O)c2cnn(CCC)c2)C1 (stereo not drawn) [Example 186],37 nM
12,"CCc1cc2c(cnn2-c2ccc(=O)n(C)c2)cc1C1(Cc2ccccc2)CCN(S(=O)(=O)c2cnn(C)n2)C1 (stereo not drawn) [Example 333, 5-(5-(3-benzyl-1-((2-methyl-2H-1,2,3-triazol-4-yl)sulfonyl)pyrrolidin-3-yl)-6-ethyl-1H-indazol-1-yl)-1-methylpyridin-2(1H)-one]",41 nM
13,"Cc1cc2c(cnn2-c2ccn(C)c(=O)c2)cc1C1(Cc2ccccc2)CCN(S(=O)(=O)c2cnn(C)n2)C1 (stereo not drawn) [Example 244, 4-(5-(3-benzyl-1-((2-methyl-2H-1,2,3-triazol-4-yl)sulfonyl)pyrrolidin-3-yl)-6-methyl-1H-indazol-1-yl)-1-methylpyridin-2(1H)-one]",840 nM
14,"CCn1cc(S(=O)(=O)N2CCC(Cc3ccccc3)(c3cc4cnn(-c5ccc(=O)n(C)c5)c4cc3C)C2)nn1 (stereo not drawn) [Example 291, 5-(5-(3-benzyl-1-((1-ethyl-1H-1,2,3-triazol-4-yl)sulfonyl)pyrrolidin-3-yl)-6-methyl-1H-indazol-1-yl)-1-methylpyridin-2(1H)-one]",110 nM
15,CCCn1cc(S(=O)(=O)N2CCC(c3cc4cnn(-c5ccc(F)cc5)c4cc3Cl)CC2)cn1 [Example 140],50 nM
16,CCCn1cc(S(=O)(=O)N(C)C2(C)CCN(c3cc4cnn(-c5ccc(F)cc5)c4cc3C)C2)cn1 (stereo not drawn) [Example 119],251 nM
17,CCCn1cc(S(=O)(=O)N2CCN(c3cc(C)c4c(cnn4-c4ccc(F)cc4)c3)CC23CC3)cn1 [Example 80],536 nM

row,SMILES,Ki
1,"Cc1cc2c(cnn2-c2ccc(F)cc2)cc1C1(CCCc2ccccc2)CCN(S(=O)(=O)c2cnn(C)c2)C1 (stereo not drawn) [Example 346, 1-(4-fluorophenyl)-6-methyl-5-(1-((1-methyl-1H-pyrazol-4-yl)sulfonyl)-3-(3-phenylpropyl)pyrrolidin-3-yl)-1H-indazole]",140 nM
2,"Cc1cc2c(cnn2-c2ccc(=O)n(C)c2)cc1C1(Cc2ccccc2)CCN(S(=O)(=O)c2cnn(CC(C)C)c2)C1 (stereo not drawn) [Example 319, 5-(5-(3-benzyl-1-((1-isobutyl-1H-pyrazol-4-yl)sulfonyl)pyrrolidin-3-yl)-6-methyl-1H-indazol-1-yl)-1-methylpyridin-2(1H)-one]",46 nM
3,"Cc1cc2c(cnn2-c2ccc(F)cc2)cc1C1(C(=O)c2ccccc2)CCN(S(=O)(=O)c2cnn(C)c2)C1 (stereo not drawn) [Example 345, (3-(1-(4-fluorophenyl)-6-methyl-1H-indazol-5-yl)-1-((1-methyl-1H-pyrazol-4-yl)sulfonyl)pyrrolidin-3-yl)(phenyl)methanone]",220 nM
4,CCCn1cc(S(=O)(=O)N2CCC(Cc3ccccc3)(c3ccc4c(cnn4-c4ccc(F)cc4)c3)C2)cn1 (stereo not drawn) [Example 159],101 nM
5,"Cc1cc2c(cnn2-c2ccc(F)cc2)cc1C1(Cc2ccccc2)CCN(C(=O)Cc2noc3ccccc23)C1 (stereo not drawn) [Example 198, 2-(benzo[d]isoxazol-3-yl)-1-(3-benzyl-3-(1-(4-fluorophenyl)-6-methyl-1H-indazol-5-yl)pyrrolidin-1-yl)ethan-1-one]",30 nM
6,"Cc1ncc(CC2(c3cc4cnn(-c5ccc(F)cc5)c4cc3C)CCN(C(=O)c3ccccc3)C2)s1 (stereo not drawn) [Example 234, (3-(1-(4-fluorophenyl)-6-methyl-1H-indazol-5-yl)-3-((2-methylthiazol-5-yl)methyl)pyrrolidin-1-yl)(phenyl)methanone]",150 nM
7,"Cc1cc2c(cnn2-c2ccc(=O)n(C)c2)cc1C1(Cc2ccccc2)CCN(S(=O)(=O)c2cnn(CC(F)(F)F)c2)C1 (stereo not drawn) [Example 278, 5-(5-(3-benzyl-1-((1-(2,2,2-trifluoroethyl)-1H-pyrazol-4-yl)sulfonyl)pyrrolidin-3-yl)-6-methyl-1H-indazol-1-yl)-1-methylpyridin-2(1H)-one]",44 nM
8,C#CCC1(c2cc3cnn(-c4ccc(F)cc4)c3cc2C)CCN(S(=O)(=O)c2cnn(C)c2)C1 (stereo not drawn) [Example 185],164 nM
9,"Cc1cc2c(cnn2-c2ccc(F)cc2)cc1C1(Cc2ccccc2)CCN(C(=O)c2ccnnc2)C1 (stereo not drawn) [Example 195, (3-benzyl-3-(1-(4-fluorophenyl)-6-methyl-1H-indazol-5-yl)pyrrolidin-1-yl)(pyridazin-4-yl)methanone]",70 nM
10,Cc1cc2c(cnn2-c2ccc(F)cc2)cc1N1C[C@@H]2CN(S(=O)(=O)c3cnn(C)c3)C[C@@H]2C1 [Example 92],495 nM
11,"Cc1cc2c(cnn2-c2ccc(=O)n(C)c2)cc1C1(Cc2ccccc2)CCN(S(=O)(=O)c2nccn2C)C1 (stereo not drawn) [Example 285, 5-(5-(3-benzyl-1-((1-methyl-1H-imidazol-2-yl)sulfonyl)pyrrolidin-3-yl)-6-methyl-1H-indazol-1-yl)-1-methylpyridin-2(1H)-one]",82 nM
12,CCCn1cc(S(=O)(=O)N2C[C@H](C)N(c3cc4cnn(-c5ccc(F)cc5)c4cc3C)C[C@H]2C)cn1 [Example 82],65 nM
13,Cc1cc2c(cnn2-c2ccc(F)cc2)cc1C1(Cc2cncs2)CCN(S(C)(=O)=O)C1 (stereo not drawn) [Example 180],809 nM
14,"Cc1cc2c(cnn2-c2cc(C#N)c(=O)n(C)c2)cc1C1(Cc2ccccc2)CCN(S(=O)(=O)c2cnn(C)n2)C1 (stereo not drawn) [Example 245, 5-(5-(3-benzyl-1-((2-methyl-2H-1,2,3-triazol-4-yl)sulfonyl)pyrrolidin-3-yl)-6-methyl-1H-indazol-1-yl)-1-methyl-2-oxo-1,2-dihydropyridine-3-carbonitrile]",190 nM
15,"O=C1CC(Cc2ccccc2)(c2cc3cnn(-c4ccc(F)cc4)c3cc2Cl)C(=O)N1Cc1ccccc1 (stereo not drawn) [Example 228, 1,3-dibenzyl-3-(6-chloro-1-(4-fluorophenyl)-1H-indazol-5-yl)pyrrolidine-2,5-dione]",28 nM
16,CS(=O)(=O)N1CCC(Cc2ccccc2)(c2cc3cnn(-c4ccc(F)cc4)c3cc2F)C1 (stereo not drawn) [Example 181],165 nM
